Assay results published in paper PMC9697930 (International Journal of Molecular Sciences, 2022).
Read-outs that look alike come from different tables or passages of the source.

Columns and labels:
MDCKII-parent = experiment: MTT proliferation / drug combination assay; assay type: cell-based, Canine; conditions: Canis lupus familiaris, 48 h
Protocol: (§1) The viability MTT assay was employed in several experimental sets, including induction studies, comparative viability assays, and drug combinations. First, 1.3 × 10^4 (MDCKII sublines), 1.2 × 10^4 (A431 sublines), 1.5 × 10^4 (MCF-7), and 1.0 × 10^4 (primary NSCLC explants) cells were seeded in 96-well plates. After seeding, cells were left to refresh in incubator for 24 h. Secondly, the medium was removed, and the serial dilutions of the drugs or drug combinations were added to the cells. Next to these variants, a medium with 40% DMSO and vehicle-containing media were tested as nonviable and unaffected viability controls, respectively. After an additional 48 h of incubation, the cells were washed with 1 × PBS and then treated with 1 mg/mL MTT solution in Opti-MEM. Subsequently, cells were incubated for 60 min under standard conditions. After MTT treatment, generated formazan crystals were solubilized with DMSO for 10 min. Wavelengths of 570 nm (formazan) and 690 nm (background) were used for absorbance measurements using a microplate reader Infinite 200 Pro NanoQuant (Tecan, Männedorf, Switzerland).
(§2) In vitro cell lines (MDCKII and A431) and primary NSCLC explants were seeded (see densities above) in 96-well plates and incubated for 24 h. […] Combined cells were incubated with the tested compounds for 48 h, and subsequently, MTT assay was performed to assess cell viability as described above. Besides IC50-shift analysis, CompuSyn 3.0.1 software (ComboSyn Inc., Paramus, NJ, USA) was used for the additional analysis of obtained data. This software works with the algorithms of the combination index (CI) method of Chou–Talalay, which is frequently used for the accurate quantification of drug combinations’ outcomes. According to the CI method principle, the combination effects were separated into three categories, including synergistic (CI < 0.9), additive (CI between 0.9–1.1), or antagonistic (CI > 1.1) ones.

A431-parent = experiment: MTT proliferation / drug combination assay; assay type: cell-based; conditions: Homo sapiens, 48 h
Protocol: as §1, §2

[1] = MTT proliferation / drug combination assay; assay type: cell-based, Canine; conditions: dog, MDCKII-ABCG2 cells; read-out: IC50
Protocol: as §1, §2

A431-ABCG2 = experiment: MTT proliferation / drug combination assay; assay type: cell-based; conditions: Homo sapiens, 48 h; read-out: IC50
Protocol: as §1, §2

Row | Structure (SMILES) | IC50 (MDCKII-parent) [nM] | IC50 (A431-parent) [nM] | IC50 at 48 h [1] [nM] | IC50 (MDCKII-parent; read-out: IC50) [nM] | IC50 (A431-parent; read-out: IC50) [nM] | IC50 (A431-ABCG2) [nM]
1 | COc1cccc2c1C(=O)c1c(O)c3c(c(O)c1C2=O)C[C@@](O)(C(C)=O)C[C@@H]3O[C@H]1C[C@H](N)[C@H](O)[C@H](C)O1 [daunorubicin] | 1000 | 1110 | – | – | – | –
2 | O=C1c2c(O)ccc(O)c2C(=O)c2c(NCCNCCO)ccc(NCCNCCO)c21 [mitoxantrone] | – | – | 12100 | 1480 | 880 | 10000
